The conditions of data set [1]: Liquid; for mass density: 298.15 K, 101.33 kPa, Vibrating tube method; for Normal boiling temperature: Ebulliometric method (Recirculating still).
The nature of data set [2]: refractive index (Na D-line) (dimensionless). To be noted: 293.15 K; 101.33 kPa; Liquid; Standard Abbe refractometry.

The results in this text go back to the NIST ThermoML archive (doi:10.1016/j.fluid.2015.05.032).

SMILES strings stand for the structures. ± gives the expanded uncertainty stated by the source.

A word on the mass density: it is the mass of a sample divided by its volume. As usually defined, the refractive index is a measure of how strongly the sample bends light. Take `COC(C)=O` [methyl ethanoate]: in data set [1], the mass density is on record as 927.5 ± 0.3 kg/m3 and the Normal boiling temperature is 56.7 ± 0.2 °C. For the same compound, the refractive index in data set [2] stood at 1.3614 ± 0.0004.
For the compound `CCC(C)OC(C)=O` (configuration not stated) [1-methylpropyl ethanoate], in data set [1], the mass density is 866.4 ± 0.3 kg/m3 and the Normal boiling temperature is 111.93 ± 0.2 °C. In data set [2], the refractive index is on record as 1.3886 ± 0.0004.
In the same order, the values of `Cc1ccc(C)cc1` [1,4-dimethylbenzene] are 856.5 ± 0.3 kg/m3, 138.47 ± 0.2 °C and 1.4952 ± 0.0004.
Take `CC(=O)O` [acetic acid]: in data set [1], the mass density was determined as 1043.5 ± 0.3 kg/m3 and the Normal boiling temperature worked out at 117.93 ± 0.2 °C. In data set [2], the refractive index was 1.3718 ± 0.0004.
